Where only a bound is given, the exact number is not on record here.

Data on 26 compounds can be found in US9296734B2 (AMGEN INC., priority 2013, dated 2016).

The target in the first experiment is Cathepsin D (Cat D) (Homo sapiens (Human), UniProt P07339). The experiment in a line: In vitro enzymatic Cathepsin D (Cat D) FRET assay. The format is biochemical. The settings on record: average IC50, cathepsin D enzyme assay; read-out: CatD IC50. The protocol: In Vitro Enzymatic Cathepsin D (Cat D) FRET (Fluorescence Resonance Energy Transfer) Assay
Chain of Cathepsin D (Cat D) (P07339 65-412, species assumed): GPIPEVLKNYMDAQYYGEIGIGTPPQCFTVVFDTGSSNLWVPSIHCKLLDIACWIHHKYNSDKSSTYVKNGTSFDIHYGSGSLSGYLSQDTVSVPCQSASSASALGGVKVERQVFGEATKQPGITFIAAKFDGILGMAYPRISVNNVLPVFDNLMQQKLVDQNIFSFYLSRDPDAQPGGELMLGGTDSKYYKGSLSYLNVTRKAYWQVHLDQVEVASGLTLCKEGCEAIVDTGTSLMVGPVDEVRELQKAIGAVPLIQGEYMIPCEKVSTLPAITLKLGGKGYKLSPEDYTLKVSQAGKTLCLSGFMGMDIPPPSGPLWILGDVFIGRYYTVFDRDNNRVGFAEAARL
Recombinant Cat D was expressed in CHO cells. The assay buffer for CathepsinD is 0.05 M citrate pH 3.5, 10% DMSO final, 5 mM CHAPS. […] The assays are effectively started by the addition of different FRET substrates (20 nM for Cat D) and the combination is incubated for one hour. The FRET assay is terminated with by addition of Tris buffer, which raises the pH to neutrality, and the fluorescence is determined. The FRET substrate is a peptide with commercially available fluorophore and quencher, on opposite sides of the BACE cleavage site. […] Proteolytic cleavage of the FRET substrate releases quenching of fluorescence (Cat D excitation 500 nm and emission 580 nm).
In addition, the cathepsin D and cathepsin E assays are described in PCT publication WO2011069934.
On to `COc1cnc(C(=O)Nc2ccc(F)c([C@]3(C)C[C@@H](C(F)(F)F)OC(N)=N3)n2)c(Cl)c1` [Example 80, N-(6-((4S,6S)-2-amino-4-methyl-6-(trifluoromethyl)-5,6-dihydro-4H-1,3-oxazin-4-yl)-5-fluoropyridin-2-yl)-3-chloro-5-methoxypicolinamide], for which the concentration for half-maximal inhibition (IC50) was 658 µM.
Take `NC1=N[C@](CF)(c2cc(Oc3ccccn3)ccc2F)C[C@@H](C(F)(F)F)O1` [Example 101, (4S,6S)-4-(2-fluoro-5-(pyridin-2-yloxy)phenyl)-4-(fluoromethyl)-6-(trifluoromethyl)-5,6-dihydro-4H-1,3-oxazin-2-amine]: the IC50 is over 400 µM.
As for `CC#Cc1cncc(-c2ccc(F)c([C@]3(CF)C[C@@H](C(F)(F)F)OC(N)=N3)c2)c1` [Example 104, (4S,6S)-4-(2-fluoro-5-(5-(prop-1-yn-1-yl)pyridin-3-yl)phenyl)-4-(fluoromethyl)-6-(trifluoromethyl)-5,6-dihydro-4H-1,3-oxazin-2-amine], the IC50 came out at 220 µM.
Take `C#CCOC1CCN(C(=O)Nc2ccc(F)c([C@]3(C)C[C@@H](C(F)(F)F)OC(N)=N3)c2)CC1` [Example 120, N-(3-((4S,6S)-2-amino-4-methyl-6-(trifluoromethyl)-5,6-dihydro-4H-1,3-oxazin-4-yl)-4-fluorophenyl)-4-(prop-2-yn-1-yloxy)piperidine-1-carboxamide]: the IC50 is over 400 µM.
The same measure, in the same setting: the figure for `C[C@@]1(c2cc(NC(=O)N3CCc4ccccc4C3)ccc2F)C[C@@H](C(F)(F)F)OC(N)=N1` [Example 121, N-(3-((4S,6S)-2-amino-4-methyl-6-(trifluoromethyl)-5,6-dihydro-4H-1,3-oxazin-4-yl)-4-fluorophenyl)-3,4-dihydroisoquinoline-2(1H)-carboxamide] is 3610 µM; for `C[C@@]1(c2cc(NC(=O)N3CCC(C(F)F)CC3)ccc2F)C[C@@H](C(F)(F)F)OC(N)=N1` [Example 122, N-(3-((4S,6S)-2-amino-4-methyl-6-(trifluoromethyl)-5,6-dihydro-4H-1,3-oxazin-4-yl)-4-fluorophenyl)-4-(difluoromethyl)piperidine-1-carboxamide] it is over 14.8 µM; for `C[C@@]1(c2cc(NC(=O)N3CC=C(C#CC4CC4)CC3)ccc2F)C[C@@H](C(F)(F)F)OC(N)=N1` [Example 124, N-(3-((4S,6S)-2-amino-4-methyl-6-(trifluoromethyl)-5,6-dihydro-4H-1,3-oxazin-4-yl)-4-fluorophenyl)-4-(cyclopropylethynyl)-5,6-dihydropyridine-1(2H)-carboxamide] it is 810 µM.
Turning to `NC1=N[C@](CF)(c2cc(NC(=O)c3ccc(Br)cn3)cc(F)c2F)C[C@@H](C(F)(F)F)O1` [Example 157, N-(3-((4S,6S)-2-amino-4-(fluoromethyl)-6-(trifluoromethyl)-5,6-dihydro-4H-1,3-oxazin-4-yl)-4,5-difluorophenyl)-5-bromopicolinamide], the half-maximal inhibitory concentration (IC50) is over 400 µM.
For the compound `NC1=N[C@](CF)(c2cc(NC(=O)c3ccc(C#CC4CC4)cn3)cc(F)c2F)C[C@@H](C(F)(F)F)O1` [Example 158, N-(3-((4S,6S)-2-amino-4-(fluoromethyl)-6-(trifluoromethyl)-5,6-dihydro-4H-1,3-oxazin-4-yl)-4,5-difluorophenyl)-5-(cyclopropylethynyl)picolinamide], the IC50 was over 400 µM.
For `CC#CCOc1ccc(C(=O)Nc2cc(F)c(F)c([C@]3(CF)C[C@@H](C(F)(F)F)OC(N)=N3)c2)nc1` [Example 160, N-(3-((4S,6S)-2-amino-4-(fluoromethyl)-6-(trifluoromethyl)-5,6-dihydro-4H-1,3-oxazin-4-yl)-4,5-difluorophenyl)-5-(but-2-yn-1-yloxy)picolinamide], the IC50 was over 400 µM.
In the case of `N#Cc1cnc2c(Nc3cc(F)c(F)c([C@]4(CF)C[C@@H](C(F)(F)F)OC(N)=N4)c3)nccc2c1` [Example 162, 8-((3-((4S,6S)-2-amino-4-(fluoromethyl)-6-(trifluoromethyl)-5,6-dihydro-4H-1,3-oxazin-4-yl)-4,5-difluorophenyl)amino)-1,7-naphthyridine-3-carbonitrile], the IC50 is over 400 µM.

Still in this experiment, the particulars now being: average IC50; read-out: CatD IC50.
Consider `C[C@@]1(c2cc(Nc3ncc(F)c4cc(C#N)cnc34)cnc2F)C[C@@H](C(F)(F)F)OC(N)=N1` [Example 78, 8-((5-((4S,6S)-2-amino-4-methyl-6-(trifluoromethyl)-5,6-dihydro-4H-1,3-oxazin-4-yl)-6-fluoropyridin-3-yl)amino)-5-fluoro-1,7-naphthyridine-3-carbonitrile], for which the IC50 was over 400 µM.
As for `C[C@@]1(c2nc(NC(=O)c3ncc(C(F)(F)F)cc3Cl)ccc2F)C[C@@H](C(F)(F)F)OC(N)=N1` [Example 81, N-(6-((4S,6S)-2-amino-4-methyl-6-(trifluoromethyl)-5,6-dihydro-4H-1,3-oxazin-4-yl)-5-fluoropyridin-2-yl)-3-chloro-5-(trifluoromethyl)-picolinamide], the IC50 was over 400 µM.
Turning to `C[C@@]1(c2nc(NC(=O)c3ncc(C#N)cc3Cl)ccc2F)C[C@@H](C(F)(F)F)OC(N)=N1` [Example 82, N-(6-((4S,6S)-2-amino-4-methyl-6-(trifluoromethyl)-5,6-dihydro-4H-1,3-oxazin-4-yl)-5-fluoropyridin-2-yl)-3-chloro-5-cyanopicolinamide], the half-maximal inhibitory concentration (IC50) was over 400 µM.
On the same count and under the same terms, the figure for `Cc1cc(C#N)cnc1C(=O)Nc1ccc(F)c([C@]2(C)C[C@@H](C(F)(F)F)OC(N)=N2)n1` [Example 84, N-(6-((4S,6S)-2-amino-4-methyl-6-(trifluoromethyl)-5,6-dihydro-4H-1,3-oxazin-4-yl)-5-fluoropyridin-2-yl)-5-cyano-3-methylpicolinamide] is 900 µM.
On to `C[C@@]1(c2nc(NC(=O)c3ncc(Br)cc3Cl)ccc2F)C[C@@H](C(F)(F)F)OC(N)=N1` [Example 86, N-(6-((4S,6S)-2-amino-4-methyl-6-(trifluoromethyl)-5,6-dihydro-4H-1,3-oxazin-4-yl)-5-fluoropyridin-2-yl)-5-bromo-3-chloropicolinamide], for which the IC50 stood at 636 µM.
Consider `C[C@@]1(c2nc(Nc3ncc(F)c4cc(C#N)cnc34)ccc2F)C[C@@H](C(F)(F)F)OC(N)=N1` [Example 89, 8-((6-((4S,6S)-2-amino-4-methyl-6-(trifluoromethyl)-5,6-dihydro-4H-1,3-oxazin-4-yl)-5-fluoropyridin-2-yl)amino)-5-fluoro-1,7-naphthyridine-3-carbonitrile], for which the IC50 amounted to 229 µM.
In the case of `NC1=N[C@](CF)(c2cc(Oc3ncccc3F)ccc2F)C[C@@H](C(F)(F)F)O1` [Example 94], the IC50 was found to be 2220 µM.
Take `CNC(=O)c1ccnc(Oc2ccc(F)c([C@]3(CF)C[C@@H](C(F)(F)F)OC(N)=N3)c2)c1` [Example 96, 2-(3-((4S,6S)-2-amino-4-(fluoromethyl)-6-(trifluoromethyl)-5,6-dihydro-4H-1,3-oxazin-4-yl)-4-fluorophenoxy)-N-methylisonicotinamide]: the IC50 was over 400 µM.
On the same count and under the same terms, the figure for `NC1=N[C@](CF)(c2cc(Oc3ncccc3Cl)ccc2F)C[C@@H](C(F)(F)F)O1` [Example 97, (4S,6S)-4-(5-((3-chloropyridin-2-yl)oxy)-2-fluorophenyl)-4-(fluoromethyl)-6-(trifluoromethyl)-5,6-dihydro-4H-1,3-oxazin-2-amine] is 1010 µM; for `NC1=N[C@](CF)(c2cc(Oc3cc(C(F)(F)F)ccn3)ccc2F)C[C@@H](C(F)(F)F)O1` [Example 99, (4S,6S)-4-(2-Fluoro-5-((4-(trifluoromethyl)pyridin-2-yl)oxy)phenyl)-4-(fluoromethyl)-6-(trifluoromethyl)-5,6-dihydro-4H-1,3-oxazin-2-amine] it is over 400 µM.
As to `N#Cc1cncc(-c2ccc(F)c([C@]3(CF)C[C@@H](C(F)(F)F)OC(N)=N3)c2)c1` [Example 103, 5-(3-((4S,6S)-2-amino-4-(fluoromethyl)-6-(trifluoromethyl)-5,6-dihydro-4H-1,3-oxazin-4-yl)-4-fluorophenyl)nicotinonitrile], the IC50 turned out to be 129 µM.
Regarding `COc1ccc(C(=O)Nc2cccc([C@]3(CF)C[C@@H](C(F)(F)F)OC(N)=N3)c2)nc1` [Example 145, N-(3-((4S,6S)-2-amino-4-(fluoromethyl)-6-(trifluoromethyl)-5,6-dihydro-4H-1,3-oxazin-4-yl)phenyl)-5-methoxypicolinamide], the half-maximal inhibitory concentration (IC50) was 3520 µM.

The same experiment, now with this note: average; read-out: CatD IC50.
In the case of `NC1=N[C@](CF)(c2cc(NC(=S)c3ccc(Cl)cn3)ccc2F)C[C@@H](C(F)(F)F)O1` [Example 91, N-(3-((4S,6S)-2-amino-4-(fluoromethyl)-6-(trifluoromethyl)-5,6-dihydro-4H-1,3-oxazin-4-yl)-4-fluorophenyl)-5-chloropyridine-2-carbothioamide], the IC50 came out at 805 µM.
For the compound `NC1=N[C@](CF)(c2cc(C#Cc3ccc(OC(F)F)cn3)ccc2F)C[C@@H](C(F)(F)F)O1` [Example 127, (4S,6S)-4-(5-((5-(difluoromethoxy)pyridin-2-yl)ethynyl)-2-fluorophenyl)-4-(fluoromethyl)-6-(trifluoromethyl)-5,6-dihydro-4H-1,3-oxazin-2-amine], the IC50 stood at 605 µM.
`Cc1cc(OC(F)F)cnc1C(=O)Nc1cc(F)c(F)c([C@]2(C)C[C@@H](C(F)(F)F)OC(N)=N2)c1` [Example 174, N-(3-((4S,6S)-2-amino-4-methyl-6-(trifluoromethyl)-5,6-dihydro-4H-1,3-oxazin-4-yl)-4,5-difluorophenyl)-5-(difluoromethoxy)-3-methylpicolinamide]: the IC50 was over 400 µM.
